The results in this text go back to ChEMBL document CHEMBL3352588, “Targeting the homologous recombination pathway by small molecule modulators” (Bioorg Med Chem Lett, 2014).

Test [1] addresses Bifunctional 3'-5' exonuclease/ATP-dependent helicase WRN (Homo sapiens, UniProt Q14191). In words: Inhibition of WRN helicase (unknown origin).
Test [2] has as its target T1, DNA repair protein RAD51 homolog 1 (Homo sapiens) (UniProt Q06609).
T1 sequence (whole entry): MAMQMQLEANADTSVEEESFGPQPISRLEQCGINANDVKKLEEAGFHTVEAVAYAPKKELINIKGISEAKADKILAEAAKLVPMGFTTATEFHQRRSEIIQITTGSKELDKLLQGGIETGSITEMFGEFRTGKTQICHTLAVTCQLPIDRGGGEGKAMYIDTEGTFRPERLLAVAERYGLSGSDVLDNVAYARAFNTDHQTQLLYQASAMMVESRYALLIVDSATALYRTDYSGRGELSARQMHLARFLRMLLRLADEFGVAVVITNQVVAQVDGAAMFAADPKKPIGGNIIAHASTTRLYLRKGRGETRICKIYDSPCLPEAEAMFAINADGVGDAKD
In words: Induction of RAD51 in cisplatin-treated neonatal human skin fibroblast assessed as increase in survival at 7.5 uM relative to untreated control.

Test [3] addresses T2, DNA repair and recombination protein RAD54-like (Homo sapiens, UniProt Q92698).
T2 sequence (Q92698 whole entry): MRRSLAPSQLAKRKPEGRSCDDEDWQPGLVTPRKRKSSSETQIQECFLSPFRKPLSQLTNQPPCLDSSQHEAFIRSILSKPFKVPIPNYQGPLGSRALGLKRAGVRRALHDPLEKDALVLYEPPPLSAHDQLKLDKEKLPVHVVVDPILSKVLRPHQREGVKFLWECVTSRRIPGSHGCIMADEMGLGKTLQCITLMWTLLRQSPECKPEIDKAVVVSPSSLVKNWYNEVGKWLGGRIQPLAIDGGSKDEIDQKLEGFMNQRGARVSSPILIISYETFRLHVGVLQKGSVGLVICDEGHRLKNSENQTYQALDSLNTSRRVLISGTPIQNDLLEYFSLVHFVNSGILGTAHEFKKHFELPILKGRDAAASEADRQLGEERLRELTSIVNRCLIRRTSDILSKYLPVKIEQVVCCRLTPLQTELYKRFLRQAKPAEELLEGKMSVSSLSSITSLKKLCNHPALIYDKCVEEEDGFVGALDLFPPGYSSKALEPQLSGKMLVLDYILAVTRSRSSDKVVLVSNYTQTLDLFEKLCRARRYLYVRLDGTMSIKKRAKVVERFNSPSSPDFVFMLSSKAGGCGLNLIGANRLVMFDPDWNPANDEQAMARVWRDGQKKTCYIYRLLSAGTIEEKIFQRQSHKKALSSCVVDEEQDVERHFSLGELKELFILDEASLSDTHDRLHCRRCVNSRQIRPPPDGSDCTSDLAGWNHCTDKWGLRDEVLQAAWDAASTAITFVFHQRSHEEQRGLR
In words: Inhibition of RAD54 (unknown origin) ATPase activity assessed as generation of reactive oxygen species.

Test [4] has as its target DNA repair protein RAD51 homolog 1 (Homo sapiens) (UniProt Q06609). In words: Inhibition of RAD51 (unknown origin) binding to ssDNA.
Test [5] has as its target T1, DNA repair protein RAD51 homolog 1 (Homo sapiens). As to the kind of experiment: Inhibition of RAD51 in human HeLa cells expressing DR-GFP construct assessed as reduction in […]-induced homologous recombination at 20 uM. It counts as cell-based.
Test [6] has the same target. As to the kind of experiment: Inhibition of RAD51 in human MCF7 cells assessed as reduction in IR-induced RAD51 foci formation at 20 uM. It counts as cell-based.

Sequence of Bifunctional 3'-5' exonuclease/ATP-dependent helicase WRN (Q14191 whole entry): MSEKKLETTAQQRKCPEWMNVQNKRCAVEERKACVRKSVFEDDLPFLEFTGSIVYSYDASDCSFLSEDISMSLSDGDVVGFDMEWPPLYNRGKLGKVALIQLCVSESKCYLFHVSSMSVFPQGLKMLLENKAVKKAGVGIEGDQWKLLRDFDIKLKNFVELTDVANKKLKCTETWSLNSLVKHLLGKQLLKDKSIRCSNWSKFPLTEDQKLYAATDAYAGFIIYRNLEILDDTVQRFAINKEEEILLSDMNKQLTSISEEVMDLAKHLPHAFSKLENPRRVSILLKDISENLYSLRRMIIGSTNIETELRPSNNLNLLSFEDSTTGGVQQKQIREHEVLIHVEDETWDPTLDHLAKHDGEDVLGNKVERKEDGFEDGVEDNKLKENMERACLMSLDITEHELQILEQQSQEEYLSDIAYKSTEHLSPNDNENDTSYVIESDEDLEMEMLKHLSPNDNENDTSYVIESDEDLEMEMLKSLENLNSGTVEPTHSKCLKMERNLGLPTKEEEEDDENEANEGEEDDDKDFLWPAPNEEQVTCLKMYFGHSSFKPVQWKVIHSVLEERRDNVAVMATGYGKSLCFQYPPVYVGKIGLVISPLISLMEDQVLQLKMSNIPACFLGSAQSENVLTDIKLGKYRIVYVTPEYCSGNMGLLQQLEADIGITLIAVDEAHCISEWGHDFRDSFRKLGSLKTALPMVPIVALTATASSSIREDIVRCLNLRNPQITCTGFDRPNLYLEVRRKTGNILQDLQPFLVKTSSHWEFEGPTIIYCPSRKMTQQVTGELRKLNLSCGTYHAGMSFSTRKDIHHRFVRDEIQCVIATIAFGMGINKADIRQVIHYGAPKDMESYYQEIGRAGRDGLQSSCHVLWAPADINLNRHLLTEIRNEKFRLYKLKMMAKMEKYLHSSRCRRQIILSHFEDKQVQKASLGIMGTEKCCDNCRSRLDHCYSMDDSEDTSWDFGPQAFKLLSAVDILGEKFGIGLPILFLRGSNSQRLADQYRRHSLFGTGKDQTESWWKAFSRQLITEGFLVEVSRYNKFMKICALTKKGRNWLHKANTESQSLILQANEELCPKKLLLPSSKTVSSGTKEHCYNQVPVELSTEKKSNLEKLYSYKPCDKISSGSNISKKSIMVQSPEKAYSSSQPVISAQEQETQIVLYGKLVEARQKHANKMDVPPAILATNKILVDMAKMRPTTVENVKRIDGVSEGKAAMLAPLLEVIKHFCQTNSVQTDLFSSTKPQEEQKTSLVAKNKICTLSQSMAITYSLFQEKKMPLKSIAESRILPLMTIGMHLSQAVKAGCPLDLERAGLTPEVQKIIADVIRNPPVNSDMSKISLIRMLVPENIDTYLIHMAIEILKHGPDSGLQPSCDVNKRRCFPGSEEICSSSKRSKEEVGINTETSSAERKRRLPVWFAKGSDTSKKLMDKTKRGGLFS

The term IC50 denotes the concentration needed to halve the response being measured. A higher IC50 goes with a need for much substance. `O=C(Nc1ccc(F)c(C(F)(F)F)c1)Nc1nnc(-c2ccncc2)s1` came in with an IC50 in test [1] of 5 µM.

On to `O=C(Nc1ccc(Br)cc1)c1ccc(Br)c(S(=O)(=O)NCc2ccccc2)c1`, for which the fold change (FC) in test [2] stood at 1.5.

For orientation: EC50 means the concentration at which the effect is half-maximal. With `COC1=C(N)C(=O)c2nc(-c3nc(C(=O)O)c(C)c(-c4ccc(OC)c(OC)c4O)c3N)ccc2C1=O` [STREPTONIGRIN], the EC50 in test [3] is 16.5 µM.

As to `COc1ccc(C2=C(N3CCOCC3)C(=O)N(c3ccc(Cl)c(Cl)c3)C2=O)cc1`, in test [4], the response was half-maximal at 44 µM (EC50).

`CCC(=O)OCN1C(=O)C=CC1=O` had an IC50 in test [1] of 20 µM.

For `O=S(=O)(Cc1ccccc1)N1C=Cc2ccccc2C1c1c[nH]c2ccccc12` (configuration not stated), the fold change (FC) in test [5] was determined as 10; in test [6], 2.
